Values quoted from earlier work, collected in US7074832B2, “Compositions containing antimicrobials and urea for the treatment of dermatological disorders and methods for their use” (Bradley Pharmaceuticals, Inc., priority 2001, dated 2006).
Values after ≈ are worked out from the molar mass of the structure shown.

Assays:
[1] = system: cyclooxygenase; conditions: qualitative statement in the description

SMILES	solubility in alcohol (alcohol)	solubility in water (water, 20° C.) [mg/mL]	cyclooxygenase activity inhibition [1]
Cc1ncc([N+](=O)[O-])n1CCO [Metronidazole, 2-methyl-5-nitro-1H-imidazole-1-ethanol]	slightly soluble	10 (≈ 58.4 mM)	
Cc1c(C)c2c(c(C)c1O)CC[C@@](C)(CCC[C@H](C)CCC[C@H](C)CCCC(C)C)O2 [alpha tocopherol]			not
Cc1c(O)cc2c(c1C)O[C@](C)(CCC[C@H](C)CCC[C@H](C)CCCC(C)C)CC2 [gamma tocopherol]			inhibit cyclooxygenase activity
Cc1c(O)cc2c(c1C)OC(C)(CCC(=O)O)CC2 (stereo not drawn) [gamma-CEHC, 2,7,8-trimethyl-2-(beta-carboxyethyl)-6-hydroxychroman]			inhibit cyclooxygenase activity
